Results published in patent publication US7452887B2, “Quinoline- and isoquinoline-based compounds exhibiting ATP-utilizing enzyme inhibitory activity, and compositions, and uses thereof” (Amphora Discovery Corporation, priority 2004, dated 2008).

Experiments:
Test in all cases: HTS ATP-utilizing enzyme assay, off-chip mobility-shift (Caliper HTS 250)
Type in all cases: biochemical
Conditions in all cases: test compound 10 μM, kinase listed = active (greater than six-sigma from the mean activity of inactive compounds)
[1] = molecular target: AKT3 (Homo sapiens, UniProt Q9Y243)
Sequence of AKT3 (Q9Y243 whole entry): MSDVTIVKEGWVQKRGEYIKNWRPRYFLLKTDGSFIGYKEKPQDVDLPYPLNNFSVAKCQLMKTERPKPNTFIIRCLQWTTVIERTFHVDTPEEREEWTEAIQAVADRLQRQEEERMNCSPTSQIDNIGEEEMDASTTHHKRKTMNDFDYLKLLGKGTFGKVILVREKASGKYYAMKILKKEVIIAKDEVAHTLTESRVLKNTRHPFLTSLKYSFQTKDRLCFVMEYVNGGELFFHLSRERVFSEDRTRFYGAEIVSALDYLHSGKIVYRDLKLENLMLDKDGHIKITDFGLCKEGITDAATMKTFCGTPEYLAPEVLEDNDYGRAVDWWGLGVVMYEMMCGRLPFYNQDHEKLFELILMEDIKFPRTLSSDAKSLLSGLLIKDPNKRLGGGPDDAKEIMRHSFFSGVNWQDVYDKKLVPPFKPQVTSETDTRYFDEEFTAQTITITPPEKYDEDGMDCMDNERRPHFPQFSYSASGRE
Method in brief: (§1)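 Test compound at 10 μM final was incubated with kinase and peptide substrate in HEPES pH 7.5 buffer with Triton X-100 and BSA for 2.5 hrs at 20° C. to 22° C., then stopped with EDTA. Inhibition came from the substrate-to-phosphorylated-product ratio on a microfluidic mobility-shift read. EDTA wells served as 100% control.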

[2] = molecular target: AKT1 (Homo sapiens, UniProt P31749)
Sequence of AKT1 (P31749 whole entry): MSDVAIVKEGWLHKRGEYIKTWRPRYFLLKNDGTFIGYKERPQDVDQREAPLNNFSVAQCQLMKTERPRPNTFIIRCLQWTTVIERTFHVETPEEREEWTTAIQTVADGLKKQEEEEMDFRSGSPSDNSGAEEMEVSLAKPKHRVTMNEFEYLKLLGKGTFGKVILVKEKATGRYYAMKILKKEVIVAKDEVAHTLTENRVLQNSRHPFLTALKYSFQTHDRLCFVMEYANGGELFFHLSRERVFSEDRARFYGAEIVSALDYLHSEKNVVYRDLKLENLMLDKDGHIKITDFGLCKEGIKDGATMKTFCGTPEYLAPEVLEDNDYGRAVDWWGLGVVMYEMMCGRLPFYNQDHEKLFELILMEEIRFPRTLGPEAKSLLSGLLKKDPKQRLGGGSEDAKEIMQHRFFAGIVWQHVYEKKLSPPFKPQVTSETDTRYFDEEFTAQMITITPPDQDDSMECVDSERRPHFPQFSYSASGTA
Method in brief: as §1

[3] = molecular target: T1, PRAK (Homo sapiens, UniProt Q8IW41)
T1 sequence (Q8IW41 1-473): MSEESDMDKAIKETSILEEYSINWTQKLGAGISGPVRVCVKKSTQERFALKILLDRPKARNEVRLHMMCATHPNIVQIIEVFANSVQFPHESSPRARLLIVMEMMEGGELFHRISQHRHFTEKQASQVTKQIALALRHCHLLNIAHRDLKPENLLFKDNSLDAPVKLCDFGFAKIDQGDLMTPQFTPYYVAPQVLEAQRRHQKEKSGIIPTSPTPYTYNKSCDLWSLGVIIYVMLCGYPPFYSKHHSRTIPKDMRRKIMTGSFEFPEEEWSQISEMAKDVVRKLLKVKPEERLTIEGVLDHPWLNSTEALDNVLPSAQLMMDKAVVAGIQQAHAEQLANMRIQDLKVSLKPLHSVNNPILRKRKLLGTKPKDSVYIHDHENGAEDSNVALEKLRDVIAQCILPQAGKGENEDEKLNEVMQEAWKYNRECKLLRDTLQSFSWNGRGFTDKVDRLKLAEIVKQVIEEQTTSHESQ
Method in brief: as §1

[4] = molecular target: T2, NEK2 (Homo sapiens, UniProt P51955)
T2 sequence (P51955 1-445): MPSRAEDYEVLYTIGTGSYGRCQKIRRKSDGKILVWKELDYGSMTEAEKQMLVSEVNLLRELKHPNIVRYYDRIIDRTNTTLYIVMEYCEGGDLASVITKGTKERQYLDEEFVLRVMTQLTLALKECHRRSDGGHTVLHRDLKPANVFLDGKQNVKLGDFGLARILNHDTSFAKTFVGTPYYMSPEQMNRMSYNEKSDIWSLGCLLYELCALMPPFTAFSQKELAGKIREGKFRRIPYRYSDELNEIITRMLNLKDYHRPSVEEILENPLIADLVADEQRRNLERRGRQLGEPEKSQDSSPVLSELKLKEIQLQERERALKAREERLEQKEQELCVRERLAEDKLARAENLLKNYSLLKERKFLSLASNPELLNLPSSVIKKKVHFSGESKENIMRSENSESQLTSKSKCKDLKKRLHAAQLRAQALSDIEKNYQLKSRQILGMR
Method in brief: as §1

[5] = molecular target: MAPKAPK2 (Homo sapiens, UniProt P49137)
Sequence of MAPKAPK2 (P49137 whole entry): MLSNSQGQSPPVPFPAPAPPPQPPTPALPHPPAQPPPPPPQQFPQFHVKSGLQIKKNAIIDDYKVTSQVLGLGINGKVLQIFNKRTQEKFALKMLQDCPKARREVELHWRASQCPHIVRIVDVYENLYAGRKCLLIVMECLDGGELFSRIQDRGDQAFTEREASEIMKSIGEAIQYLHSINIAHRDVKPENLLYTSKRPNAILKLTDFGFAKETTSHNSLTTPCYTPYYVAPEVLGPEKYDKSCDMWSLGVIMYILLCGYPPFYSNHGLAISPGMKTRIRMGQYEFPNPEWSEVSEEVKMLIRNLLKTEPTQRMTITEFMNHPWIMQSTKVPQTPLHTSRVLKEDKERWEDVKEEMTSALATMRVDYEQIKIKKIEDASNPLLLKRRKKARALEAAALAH
Method in brief: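 Single-point screen of test compound at 10 μM against MAPKAPK2 with peptide substrate in HEPES pH 7.5 buffer (Triton X-100, BSA), 2.5 h at 20-22 °C. Substrate-to-phosphopeptide ratio was read by off-chip microfluidic mobility shift; EDTA and DMSO wells defined 100% and 0% controls, hits by six-sigma limits.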

How did the Activity [1] turn out when CN1CCN(c2ccc(Nc3ccnc4ccc(-c5cccc(C#N)c5)cc34)cc2)CC1 [3-(4-(4-(4-methylpiperazin-1-yl)phenylamino)quinolin-6-yl)benzonitrile] was run?
Its Activity is “AKT3”.

And the Activity [2]?
Its Activity is “AKT1”.

And the Activity [3]?
Its Activity is “PRAK”.

And the Activity [4]?
The Activity was “NEK2”.

What about the Activity [5] of the same molecule?
The Activity was “MAPKAPK2”.
